Measurements taken from patent US20220106304A1, “Transcription Factor BRN2 Inhibitory Compounds as Therapeutics and Methods for Their Use” (The University of British Columbia, priority 2018, published 2022).

Key:
BRN2 [1] = biological target: T1, BRN2 (Homo sapiens, UniProt P20265); assay: cell-based; conditions: negative = activation; for inhibition at 10 µM: read-out: % BRN2 Inhibition (10 μM), 10 μM compound, 24 hours, 42D^ENZR cells stably expressing BRN2-luciferase reporter; for inhibition at 30 µM: read-out: % BRN2 Inhibition (30 μM), 30 μM compound, 24 hours, 42D^ENZR cells stably expressing BRN2-luciferase reporter
T1 sequence (P20265 1-443): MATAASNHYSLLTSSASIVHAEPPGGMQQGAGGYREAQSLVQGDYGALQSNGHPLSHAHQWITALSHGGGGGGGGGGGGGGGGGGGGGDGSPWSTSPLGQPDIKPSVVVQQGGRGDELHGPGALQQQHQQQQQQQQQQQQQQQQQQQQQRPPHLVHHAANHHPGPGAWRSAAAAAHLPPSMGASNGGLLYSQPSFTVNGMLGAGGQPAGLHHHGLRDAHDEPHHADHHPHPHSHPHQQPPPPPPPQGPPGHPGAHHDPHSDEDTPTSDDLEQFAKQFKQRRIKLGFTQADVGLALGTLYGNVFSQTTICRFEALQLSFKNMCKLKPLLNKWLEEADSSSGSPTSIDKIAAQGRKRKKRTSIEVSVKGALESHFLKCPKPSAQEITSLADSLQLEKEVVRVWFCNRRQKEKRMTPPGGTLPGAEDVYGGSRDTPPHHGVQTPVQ

BRN2 [2] = biological target: T1, BRN2; assay: BLI binding
[3] = Liver microsome metabolic stability, MLM; format: in vitro ADME; conditions: MLM (single value or second of two), 1 μM compound, 0.25 mg/mL protein; for Met Stab % (60 mins HLM/MLM): percent remaining at 60 min, 1 mM NADPH; for half-life at 1 µM: mouse, liver microsomes, pH 7.4, read-out: T1/2 in (mins HLM/MLM)
Summary of the method: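 Compound (1 μM) incubated at 37 °C with mouse or human liver microsomes (0.25 mg/mL) in 50 mM phosphate pH 7.4 with 1 mM NADPH; samples quenched at 0–60 min. Parent loss by LC-MS/MS gives t½ (0.693/k) and CL'int scaled by 45 mg protein/g liver.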

[4] = Liver microsome metabolic stability, HLM; format: in vitro ADME; conditions: HLM (first of two values), 1 μM compound, 0.25 mg/mL protein
Description: Potassium phosphate buffer (Kphos) was prepared by adding 0.647 g potassium phosphate monobasic (KH2PO4) and 3.527 g potassium phosphate dibasic ([…]) to 400 mL of Milli-Q water. pH of the buffer was adjusted to 7.4 and volume was made up to 500 mL.
Microsomes (20 mg/mL) were diluted in KH2PO4 buffer to prepare a concentration of 0.357 mg/mL.
Stock solutions of BRN2 inhibitors were prepared in DMSO at a concentration of 1 mM
A stock solution of 3.33 mM NADPH (3.33×) was prepared by dissolving appropriate amount of NADPH in KH2PO4 buffer.
Total Incubation volume: 100 μL
Compound concentration: 1 μM
Protein Concentration: 0.25 mg/mL
An 1120 μL aliquot of Kphos buffer (50 mM, pH 7.4) containing liver microsomes (0.357 mg/mL) were added to individual 2 mL tubes (final concentration 0.25 mg/mL). Test compounds (1 mM) and positive controls were directly spiked into respective tubes to prepare a concentration of 1.428 μM (final concentration 1 μM). From the above mix, 70 μL was added to individual wells of 96 well reaction plates and pre-incubated in a 37° C. water bath for 5 min. All the reactions were initiated by adding 30 μL of 3.33 mM NADPH (final concentration 1 mM). Reactions without NADPH and buffer controls (minus NADPH) at 0 min and 60 min were also incubated to rule out non-NADPH metabolism or chemical instability in the incubation buffer. All reactions were terminated using 100 μL of ice-cold acetonitrile containing internal standard at 0, 5, 15, 30 and 60 min. The plates were centrifuged at 4000 RPM for 15 min and 100 μL aliquots were submitted for analysis by LC-MS/MS.
Samples were monitored for parent compounds disappearance in MRM mode using LC-MS/MS.
The percent remaining of test compounds and positive control in each sample was determined by considering peak area ratio in the 0 minute sample as 100%. The Half-life of compounds in microsomes is calculated by formula:
Half-life (t½) (min)=0.693/k, where k is gradient of line determined from plot of peak area ratio (compound peak area/internal standard peak area) against time.
In vitro intrinsic clearance (CL'int) (units in mL/min/kg) was calculated using the formula.
[formula] • For liver microsomes, scaling factor used was 45 mg microsomal protein per gm liver. • Indicates liver weight (gm) which varies species wise. For mice the liver weights are 90 gm.
(§1) Where data is not available “na” is inserted.

[5] = tested on: 42D^ENZR cells vs 16D^CRPC cells; assay: Cell proliferation specificity, 42D^ENZR cells vs 16D^CRPC cells; format: cell-based; conditions: 42D cells express BRN2, 16D cells do not; some also LNCaP; result in words
Description: (§2) Plate 42DENZR (˜7000 cells per well) and 16D^CRPC (˜5000 cells per well) cells in 96 well plate with a volume of 100 μL per well. • 2. Next day 1 mL aliquots of media are combined with 3× the desired concentration of compounds. The aliquots are vortexed and 50 μL of each 3× concentration is added to the 100 μL of media in each well to give the ix desired concentration.
(§3) The following are the desired concentrations:
(§4) 0, 10 nM, 100 nM, 500 nM, 1 μM, 2.5 μM, 5 μM, 10 μM, 15 μM, […], 30 μM. • 3. Approximately 72 hours later, 17 μL of 10% Glutaraldehyde is added to each well and plates are placed on a shaker for 20-30 minutes. • 4. Media is washed off the fixed cells by slow submersion in a container of water. Then the water is removed by tapping the plate upside down. • 5. 75 μL of Crystal Violet™ solution is added into the 96 well plates and placed on a shaker for ˜30 minutes. • 6. Media is washed off the fixed cells by repeated slow submersion in a container of water and the plates are allowed to dry over-night. • 7. Next day, 75 μL of Sorensen Solution is accurately pipetted into each well. The plates placed on a shaker for ˜30 minutes. • 8. Absorbance is measured in the plate at 590 nm.
Compounds that Show Specificity Towards 42D^ENZR Cells Vs 16D^CRPC Cells Progress to Step 4.
as §1

42D^ENZR cells = assay: Cell proliferation (crystal violet), BRN2 expressing 42D^ENZR cells; format: cell-based; conditions: 42D cells, approximately 72 hours
Description: as §2, §3, §4

SMILES	inhibition at 10 µM (BRN2 [1])	inhibition at 30 µM (BRN2 [1])	BLI binding (BRN2 [2])	Met Stab % (60 mins HLM/MLM) [3]	half-life at 1 µM [3]	Met Stab % (60 mins HLM/MLM) ([4]; percent remaining at 60 min, 1 mM NADPH)	half-life at 1 µM ([4]; human, liver microsomes, pH 7.4, read-out: T1/2 in (mins HLM/MLM))	specificity [5]	IC50 (42D^ENZR cells)
FC(F)(F)c1ccc2cc(-c3csc(-c4ccco4)n3)oc2c1 [VPC-18-51, 2-(Furan-2-yl)-4-(6-(trifluoromethyl)benzofuran-2-yl)thiazole]	62.5%	71.4%	binding	7%	16 min	42%	45 min	specific 42D not 16D	
Clc1cc2cc(-c3csc(-c4ccc[nH]4)n3)oc2cc1Cl [VPC-18-142]	29.1%	53.6%	binding	17%	26 min			not 16D	2500 nM
